Data as given in patent US20150231109A1, “COMBINATIONS (CATECHINS AND METHOTREXATE) FOR USE IN THE TREATMENT OF MELANOMAS” (UNIVERSIDAD DE MURCIA, priority 2012, published 2015).

What was measured:
[1] = system: melanoma cells (SK-MEL-28); assay: dNTP pool extraction and analysis; assay type: cell-based, human
Procedure: FIGS. 2A-N. MTX and TMECG combination therapy induces apoptosis via dTTP depletion and DNA-damage. A, Intracellular accumulation of TMECG-QM in SK-MEL-28 treated with TMECG or MTX/TMECG for 24 h. B, Proliferation assays performed of control or MTX/TMECG-treated ([…]) SK-MEL-28 cells. C, Quantification of effects of MTX/TMECG treatment on SK-MEL-28 cells (*P<0.05 with respect to TMECG-treated cells). For time course assay MTX (1 μM) and TMECG (10 μM) were used. D, dNTP quantification in melanoma cells subjected to indicated treatments (*P<0.05). E, SK-MEL-28 cells treated with MTX/TMECG for the indicated times were examined by immunofluorescence for γH2AX foci (red) and DAPI (blue) (left panels), or by WB (right panels). β-actin served as a protein loading control. F, apoptosis determination at different MTX/TMECG combinations in SK-MEL-28 cells after 4 days of treatment. Data were obtained in triplicate in two independent experiments. Differences in apoptosis in MTX/TMECG treated cells were significant with respect to individual treatments for each drug concentration (p<0.05). […] K, quantification of γH2AX foci in SK-MEL-28 cells treated with MTX (1 μM) and/or TMECG (10 μM), or X-rays. […] N, Cell cycle profile determined by flow cytometry of SK-MEL-28 cells treated with a sublethal dose of MTX/TMECG. […]

[2] = system: SK-MEL-28 cells; assay: Matrigel Boyden chamber invasion assay, SK-MEL-28; assay type: cell-based, human; settings: SK-MEL-28, MTX 48 h, 1 μM
Procedure: FIGS. 1A-J. Methotrexate up-regulates the expression of MITF. A, The MITF rheostat, and the two-step strategy for melanoma therapy: Drug A induces MITF, driving cells to be sensitive to Drug B. B, MTX (1 μM) increases MITF mRNA determined using quantitative and conventional RT-PCR from indicated cell lines. […] C, MTX (1 μM) induces MITF protein assayed by western blotting (WB) (*P<0.05). D, Immunofluorescence of control or MTX-treated (3 h) 501 MEL cells using anti-MITF and DAPI. E, Matrigel assay of control and MTX-treated SKMEL-28 cells (48 h, 1 μM) and IGR39 (72 h, 1 μM) cells. […] Scale bar refers to all panels. F, Chromatin immunoprecipitation on TYR and Pmel17 genes of control and MTX-treated (4 h, 1 μM) SK-MEL-28 cells with qRT-PCR after immunoprecipitation with IgG, or MITF and HDAC3 antibodies. Error bars indicate standard deviations of triplicates; experiment reproduced four times with similar results. G, Scanning electron micrographs of control and MTX-treated (1 μM, 24 h) SK-MEL-28 cells. H, Semiquantitative RT PCR of TYR, TYRP1, Pmel17, MART1, and Rab27a mRNA. […]
Invasion assays were performed using a cell invasion assay kit (BD Bioscience). […] The invading cells were stained and quantified measuring the surface occupied by stained cells with a cell counter plug-in of the Image J software.

[3] = system: MCF7; assay: HPLC/MS/MS intracellular levels of MTX in MCF7; assay type: cell-based; settings: MCF7, same MTX treatment (24 h, 1 μM)

intracellular levels of MTX [3]: 1.3 ± 0.4 pmol/106 cells
Structure (SMILES): CN(Cc1cnc2nc(N)nc(N)c2n1)c1ccc(C(=O)N[C@@H](CCC(=O)O)C(=O)O)cc1 [MTX, methotrexate]
dTTP levels [1]: increased dTTP levels
invasiveness [2]: eliminated invasiveness
